{"source": "patent US20050142169A1", "about": "“Palatability enhanced composition and method for animal consumption” (priority 2003, published 2005)", "system": "cats", "assay": "two-bowl preference test, Example 7 (Feline w/d)", "type": "in vivo, cat", "settings": "dry wt. of kibble", "source_text": "Finally, a commercial dry palatant enhancer (1.4% dry weight basis) was topically applied to the dry kibbles to complete the test composition.", "key": {"[1]": {"settings": "Exp. No. 1, second set of experiments, 5 ppm"}, "[2]": {"settings": "Exp. No. 2, second set of experiments, 20 ppm"}}}
{"molecule": "CCC1OC(C)=C(O)C1=O", "note": "(stereo not shown) [5-methyl-2-ethyl-4-hydroxy-3(2H)-furanone]", "values": [{"measurement": "Intake Ratio", "setting": "Exp. No. 1, 5 ppm", "value": 0.8254}, {"measurement": "Preference (%) control composition", "setting": "Exp. No. 1, 5 ppm", "value": 12.0, "unit": "%"}, {"measurement": "Preference (%) test composition", "setting": "Exp. No. 1, 5 ppm", "value": 88.0, "unit": "%"}, {"measurement": "Status (vs. control)", "setting": "Exp. No. 1, 5 ppm", "value": "Win"}, {"measurement": "Intake Ratio", "setting": "[1]", "value": 0.7476}, {"measurement": "Preference (%) control composition", "setting": "[1]", "value": 21.7, "unit": "%"}, {"measurement": "Preference (%) test composition", "setting": "[1]", "value": 78.3, "unit": "%"}, {"measurement": "Status (vs. control)", "setting": "[1]", "value": "Win"}, {"measurement": "Intake Ratio", "setting": "Exp. No. 2, 20 ppm", "value": 0.9731}, {"measurement": "Preference (%) control composition", "setting": "Exp. No. 2, 20 ppm", "value": 0.0, "unit": "%"}, {"measurement": "Preference (%) test composition", "setting": "Exp. No. 2, 20 ppm", "value": 100.0, "unit": "%"}, {"measurement": "Status (vs. control)", "setting": "Exp. No. 2, 20 ppm", "value": "Win"}, {"measurement": "Intake Ratio", "setting": "[2]", "value": 0.8679}, {"measurement": "Preference (%) control composition", "setting": "[2]", "value": 8.0, "unit": "%"}, {"measurement": "Preference (%) test composition", "setting": "[2]", "value": 92.0, "unit": "%"}, {"measurement": "Status (vs. control)", "setting": "[2]", "value": "Win"}]}
